Literature values, collected in patent US20220143227A1, “Method of Treatment of Neuroendocrine Tumors That Over-Express Somatostatatin Receptors” (ADVANCED ACCELERATOR APPLICATIONS, priority 2015, published 2022).
Like-named read-outs stand apart in the source and are kept apart here.

How the values were obtained:
[1] = system: progressive neuroendocrine tumors of pancreatic origin, and NETs of gastrointestinal (GI) or lung origin; conditions: Phase 3 trials
lymphocytes = conditions: B- versus T-lymphocytes
[2] = system: human xenograft tumor model of NET; conditions: in vivo
[3] = human, in vivo
pos-tdocetaxel CRPC = conditions: phase III trial

Compound: CO[C@H]1C[C@@H]2CC[C@@H](C)[C@@](O)(O2)C(=O)C(=O)N2CCCC[C@H]2C(=O)O[C@H]([C@H](C)C[C@@H]2CC[C@@H](OCCO)[C@H](OC)C2)CC(=O)[C@H](C)/C=C(\C)[C@@H](O)[C@@H](OC)C(=O)[C@H](C)C[C@H](C)/C=C/C=C/C=C/1C [Everolimus]
- PFS [1]: 11 months

Compound: C[C@@H](O)[C@H](NC(=O)[C@@H]1CSSC[C@H](NC(=O)[C@@H](Cc2ccccc2)NC(=O)CN2CCN(CC(=O)[O-])CCN(CC(=O)[O-])CCN(CC(=O)[O-])CC2)C(=O)N[C@@H](Cc2ccc(O)cc2)C(=O)N[C@H](Cc2c[nH]c3ccccc23)C(=O)N[C@@H](CCCCN)C(=O)N[C@@H]([C@@H](C)O)C(=O)N1)C(=O)O.[177Lu+3] [Lutathera, [177]Lutetium-DOTA[O]-Tyr[3]-Octreotate]
- lymphocyte toxicity, specificity (lymphocytes): more specific to B-lymphocytes
- CD86+ APC infiltration [2]: increased CD86+ APC infiltration
- expression of CD86 on APC [2]: increased expression of CD86
- severe hematologic toxicity Grade 3-4 [3]: 3.1 % of the cases

Compound: ipilimumab: antibody that targets the CTLA-4/B7 receptor complex, approved for unresectable or metastatic melanoma
- improvement in OS with addition of ipilimumab to RT (pos-tdocetaxel CRPC): no significant improvement in OS
- abscopal effect among patients with local response (advanced melanoma; 13 patients with local response): 85%
- no local regression (advanced melanoma; 21 patients, RT after ipilimumab progression): 38%
- median OS (advanced melanoma; all 21 patients): 13 months
- median OS (advanced melanoma; patients with abscopal responses): 22.4 months
- median OS (advanced melanoma; patients without abscopal responses): 8.3 months
